According to patent US20070088024A1, “Active substance combination comprising a carbinol combined to at least an NSAID” (LABORATORIOS DEL DR. ESTEVE S.A., priority 2004, published 2007):

Legend:
male Swiss albino mice [1] = assay: Writhing test in mice (phenylbenzoquinone-induced writhing reactions); type: in vivo; settings: for % Activity (inhibition of the writhing reactions): 60 minutes prior to phenylbenzoquinone; for ED50: p.o., in mg/kg
Description: (§1) The Writhing test for the determination of the analgesic activity of the inventive active substance combination is carried out according to the method described in the publication of E. Siegmund et al., Proc. Soc. Exp. Biol. Med. 1957, 95, 729-731 using male Swiss albino mice (20-25 g body weight, obtained from Harlan, S. Feliu de Codinas, Spain). The respective part of the description is hereby incorporated by reference and forms part of the respective disclosure.
The Writhing reactions are induced by intraperitoneal injection of phenylbenzoquinone (25 ml/kg in a 0.02% (volume/volume) ethanolic solution in a 5% (volume/volume) solution in destillated water with Evan's blue in an amount of 0.1% weight/volume) and the writhing reactions are counted during a 15 minute period following the injection. The substances to be tested are orally administered 60 minutes prior to the injection of the phenylbenzoquinone solution. The percentage of the inhibition of the writhing reactions is calculated on the basis of the control group as basis for 0% inhibition.

male Swiss albino mice [2] = assay: Formaline test in mice; type: in vivo; settings: 40 mg/kg i.p.
Description: as §1, with “Formaline” for “Writhing”, “T. Ohkubo” for “E. Siegmund”, “J. Pharmacol.” for “Proc. Soc.”, “Ther. 1990, 252, 1261-1268” for “Biol. Med. 1957, 95, 729-731”
The substances to be tested are intraperitoneally administered to the mice in 5% by weight solution of arabic gum in destined water as vehicle. 15 minutes later 20 μl of a 5% by weight solution of formaline in saline solution is injected into the back of the right paw of the animals. The total time in seconds of licking and/or biting the injected paw is registered in the acute phase, i.e. 0-5 minutes (phase I), and in the chronic phase, i.e. 15-30 (phase II), minutes after injection of the formaline.
The percentage of inhibition is calculated based on the medium values of the acute and chronic phases of the control group as 0% inhibition of the primary and secondary response.

Structure (SMILES) | % Activity (inhibition of the writhing reactions) (male Swiss albino mice [1]; 40 mg/kg p.o.) [%] | % Activity (inhibition of the writhing reactions) (male Swiss albino mice [1]; 80 mg/kg p.o.) [%] | % Activity (inhibition of the writhing reactions) (male Swiss albino mice [1]; 160 mg/kg p.o.) [%] | ED50 (male Swiss albino mice [1]) | % Activity Phase I (male Swiss albino mice [2]; acute phase 0-5 minutes) [%] | % Activity Phase II (male Swiss albino mice [2]; chronic phase 15-30 minutes) [%]
CN(C)CCO[C@H](c1ccccc1)c1ccnn1C.O=C(O)Cc1ccccc1Nc1c(Cl)cccc1Cl [R-(+)-Cizolirtine diclofenacate, R-(+)-5-[α-[2-(Dimethylamino)ethoxy]benzyl]-1-methyl-1H-pyrazole diclofenacate] | 14.7 | 57.3 | 72.1 | 84 | – | –
CC(C)Cc1ccc([C@H](C)C(=O)O)cc1.CN(C)CCO[C@H](c1ccccc1)c1ccnn1C [R-(+)-Cizolirtine ibuprofenate, R-(+)-5-[α-[2-(Dimethylamino)ethoxy]benzyl]-1-methyl-1H-pyrazole S-(+)-ibuprofenate] | 15.9 | 45 | 80.9 | 84.8 | – | –
CN(C)CCO[C@@H](c1ccccc1)c1ccnn1C [S-(−)-Cizolirtine, S-(−)-5-[α-[2-(Dimethylamino)ethoxy]benzyl]-1-methyl-1H-pyrazole] | 29.0 | 49.7 | 59.7 | 95.26 | – | –
CN(C)CCO[C@@H](c1ccccc1)c1ccnn1C.COc1ccc2cc([C@H](C)C(=O)O)ccc2c1 [S-(−)-Cizolirtine naproxenate, S-(−)-5-[α-[2-(Dimethylamino)ethoxy]benzyl]-1-methyl-1H-pyrazole naproxenate] | 26.7 | 52.4 | 68.5 | 82.15 | – | –
CN(C)CCO[C@H](c1ccccc1)c1ccnn1C.COc1ccc2cc([C@H](C)C(=O)O)ccc2c1 [R-(+)-Cizolirtine naproxenate, R-(+)-5-[α-[2-(Dimethylamino)ethoxy]benzyl]-1-methyl-1H-pyrazole naproxenate] | 32.0 | 52.0 | 77.3 | 71.29 | 49 | 36
